US20060069123A1, “Substituted dipiperidine CCR2 antagonists” (priority 2004, published 2006)
Like-named read-outs stand apart in the source and are kept apart here.

Columns and labels:
Lewis rats [1] = test system: Lewis rats
DBA1 mice = conditions: 100 mg/kg ip, bid, day 20 to day 35, in either vehicle
Protocol: Collagen-Induced Arthritis Model
In a collagen-induced arthritis model in mice, DBA1 mice were immunized with bovine type II collagen on day 0, injected (sc) with lipopolysaccharide (LPS) on day 21, and dosed (ip, bid) with a test compound at either 25, 50 or 100 mg/kg from day 20 to day 35. Body weight was monitored, and clinical disease score recorded every 2-3 days starting on day 20.
Test compound was dosed in one of two vehicles:
• 1) 10% Pharmasolve:20% PEG-400:70% of a 1% solution of Tween-80 in water; or, • 2) 30% PEG400:20% Solutol:50% of a 0.1 N solution of NaHCO3.

THP-1 cells [2] = test: MCP-1 Induced Chemotaxis in THP-1 Cells; type: cell-based; conditions: Homo sapiens, read-out: Inhibition of MCP-1 Induced Chemotaxis IC50
Lewis rats [3] = test: Adjuvant-Induced Arthritis Model (Therapeutic Dosing from Day 12-16); type: in vivo
Text: Adjuvant-Induced Arthritis Model (Therapeutic Dosing from Day 12-16)

THP-1 cells [4] = conditions: Homo sapiens; for IC50: THP-1, read-out: Inhibition of MCP-1 Induced Calcium Ion Influx IC50
BALB/c female mice = test: Mouse Model of Allergic Asthma; type: in vivo; conditions: 100 mg/kg ip
Text: Mouse Model of Allergic Asthma: An allergic asthma model in mice was used to test compounds of the invention for therapeutic effect on asthmatic response as a function of airway inflammation and hyperresponsiveness ([…], et al., J. Phar. Exp. Ther., 2000, 295: 912-926). Airway hyperresponsiveness in asthmatic patients is a cardinal feature of allergic asthma and is maintained as a result of persistent airway inflammation. Eosinophils are the prominent cells involved in airway inflammation and are found in large numbers in sputum and bronchoalveolar lavage fluids. Airway responsiveness was measured in unrestrained mice by noninvasive whole body plethysmography using a BioSystem plethysmography instrument (BUXCO, Troy, N.Y.). Each animal was individually placed in the plethysmography instrument chamber and chamber pressure was used as a measure of the difference between thoracic volume expansion or contraction and air volume removed or added to the chamber during breathing. The differential of this function with respect to time produced a pseudo flow value that was proportionate to the difference between the rate of the thoracic volume expansion and nasal air flow (Hamelmann, et al., J. Respir. Crit. Care Med., 1997, 156: 766-775). Three treatment groups of BALB/c female mice (6-8 weeks old) were tested in the 32 day study: • Group 1: vehicle control phosphate buffered saline (PBS)-sensitized and PBS-challenged mice; • Group 2: positive control ovalbumin (OVA)-sensitized and OVA-challenged mice; and, • Group 3: OVA-sensitized and OVA-challenged mice treated with Compound 13. […] • Group 1 mice were sensitized by injection (ip) with PBS; and, • Group 2 mice were OVA sensitized by injection (ip) with OVA (20 μg) dissolved in PBS adsorbed on 2.25 mg alum. […] Day 32: The three treatment groups were challenged via airway by means of methacholine inhalation and asthmatic response was measured as a function of airway hyper-responsiveness. A baseline reading over a 5 min period for each of the mice in the three treatment groups was taken in the plethysmography instrument, then the baseline readings were averaged. • Group 1 mice were nebulized with saline at increasing doses (1-30 mg/ml) over a 2 min period. • Group 2 (first subset) and Group 3 mice were nebulized with methacholine at increasing doses (1-30 mg/ml) over a 2 min period. Post-Challenge Phase A 5 min post-challenge reading for each of the mice was taken and the readings were averaged. Reduction in airway hyperresponsiveness was calculated according to the following formula: [formula] Airway inflammation was measured by eosinophil cell count in bronchoalveolar saline lavage samples (1 mL) of the mice from the three groups. […] The number of eosinophils was counted and the cell concentration adjusted to 0.1×10^6/mL.

CCR2 = biological target: T1, CCR2 (Homo sapiens, UniProt P41597)
T1 sequence (P41597 1-360 isoform P41597-2): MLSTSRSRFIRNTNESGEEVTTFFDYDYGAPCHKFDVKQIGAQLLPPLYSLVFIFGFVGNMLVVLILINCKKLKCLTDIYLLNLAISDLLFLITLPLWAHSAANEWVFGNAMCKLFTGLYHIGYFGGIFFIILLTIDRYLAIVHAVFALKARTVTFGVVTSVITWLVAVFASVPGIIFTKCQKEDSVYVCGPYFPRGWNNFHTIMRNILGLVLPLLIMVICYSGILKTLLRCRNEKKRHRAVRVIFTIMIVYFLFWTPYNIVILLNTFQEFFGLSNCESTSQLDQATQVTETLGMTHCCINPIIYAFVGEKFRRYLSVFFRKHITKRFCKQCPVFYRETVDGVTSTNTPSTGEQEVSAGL

[5] = OVA-sensitized and OVA-challenged mice
[6] = THP-1 cells, MCP-1 0.01 μg/mL, 3 hours
[7] = orally, once per day, 3 mg/kg, days 10-14 (positive control)
[8] = orally, once per day, 3 mg/kg (positive control), therapeutic study

| SMILES | IC50 (THP-1 cells [4]) | IC50 (CCR2) | IC50 (THP-1 cells [2]; [6]) | also measured |
| --- | --- | --- | --- | --- |
| O=C(O)C(C1CCN(C(=O)/C=C/c2cc(F)c(F)c(F)c2)CC1)N1CCC(c2c[nH]c3ccccc23)CC1 (stereo not drawn) [Cpd 6, [4-(1H-indol-3-yl)-piperidin-1-yl]-{1-[(2E)-3-(3,4,5-trifluoro-phenyl)-acryloyl]-piperidin-4-yl}-acetic acid] | 0.005 µM | – | – | decrease in swelling in the injected paws (Lewis rats [1]; ip, bid, 100 mg/kg, days 0-14): 40%; swelling of the contralateral paws (Lewis rats [1]; ip, bid, 100 mg/kg, days 0-14): insignificant swelling; inhibited the development of arthritis (clinical disease score on day 35) (DBA1 mice): greater than 90%; IC50 (THP-1 cells [2]; THP-1, 3 h): 0.008 µM; decreased swelling in the injected paw (Lewis rats [3]; ip, bid, 100 mg/kg, days 12-16): 40%; inhibited contralateral paw swelling (Lewis rats [3]; ip, bid, 100 mg/kg, days 12-16): 51% |
| O=C(O)[C@H](C1CCN(C(=O)/C=C/c2cc(F)c(F)c(F)c2)CC1)N1CCC(c2c[nH]c3ccccc23)CC1 [Cpd 13, (S)-{[4-(1H-indol-3-yl)-piperidin-1-yl]}-{1-[(2E)-3-(3,4,5-trifluoro-phenyl)-acryloyl]-piperidin-4-yl}-acetic acid] | – | – | – | Airway Hyperresponsiveness (whole body plethysmography reading) (BALB/c female mice; Group 3: OVA-sensitized and OVA-challenged mice, methacholine challenge day 32, n=4): 1147±49; Eosinophil Infiltration (eosinophil cell count in bronchoalveolar lavage) (BALB/c female mice; Group 3: OVA-sensitized and OVA-challenged mice, n=3): 0.2±0.1 ×10^5/ml; reduction in airway hyperresponsiveness compared to the non-treated mice (BALB/c female mice; [5]): ~36%; reduction in airway inflammation compared to the non-treated mice (BALB/c female mice; [5]): 75% |
| CC(=O)OCC(C1CCN(C(=O)/C=C/c2cc(F)c(F)c(F)c2)CC1)N1CCC(c2c[nH]c3ccccc23)CC1 (stereo not drawn) [Cpd 236, acetic acid 2-[4-(1H-indol-3-yl)-piperidin-1-yl]-2-{1-[(2E)-3-(3,4,5-trifluoro-phenyl)-acryloyl]-piperidin-4-yl}-ethyl ester] | 0.03 µM | 0.02 µM | 0.02 µM | – |
| CC(=O)OCC(C1CCN(C(=O)/C=C/c2ccc(Cl)c(Cl)c2)CC1)N1CCC(c2c[nH]c3ccccc23)CC1 (stereo not drawn) [Cpd 237, acetic acid 2-{1-[(2E)-3-(3,4-dichloro-phenyl)-acryloyl]-piperidin-4-yl}-2-[4-(1H-indol-3-yl)-piperidin-1-yl]-ethyl ester] | 0.07 µM | 0.215 µM | 0.11 µM | – |
| CC(=O)OCC(C1CCN(C(=O)Nc2ccc(Cl)c(Cl)c2)CC1)N1CCC(c2c[nH]c3ccccc23)CC1 (stereo not drawn) [Cpd 242, acetic acid 2-[1-(3,4-dichloro-phenylcarbamoyl)-piperidin-4-yl]-2-[4-(1H-indol-3-yl)-piperidin-1-yl]-ethyl ester] | 0.04 µM | 0.23 µM | 0.27 µM | – |
| O=C(/C=C/c1ccc([N+](=O)[O-])cc1)OCC(C1CCN(C(=O)/C=C/c2ccc([N+](=O)[O-])cc2)CC1)N1CCC(c2c[nH]c3ccccc23)CC1 (stereo not drawn) [Cpd 251, (2E)-3-(4-nitro-phenyl)-acrylic acid 2-[4-(1H-indol-3-yl)-piperidin-1-yl]-2-{1-[(2E)-3-(4-nitro-phenyl)-acryloyl]-piperidin-4-yl}-ethyl ester] | 0.56 µM | 0.39 µM | 0.17 µM | – |
| O=C(C=Cc1ccc(F)c(F)c1)N1CCC(C(CO)N2CCC(c3c[nH]c4ccc(F)cc34)CC2)CC1 (stereo not drawn) [Cpd 254, (2E)-3-(3,4-difluoro-phenyl)-1-(4-{1-[4-(5-fluoro-1H-indol-3-yl)-piperidin-1-yl]-2-hydroxy-ethyl}-piperidin-1-yl)-propenone] | 0.03 µM | 0.12 µM | 0.02 µM | – |
| O=C(/C=C/c1cc(F)cc(F)c1)N1CCC(C(CO)N2CCC(c3c[nH]c4ccc(O)cc34)CC2)CC1 (stereo not drawn) [Cpd 259, (2E)-3-(3,5-difluoro-phenyl)-1-(4-{2-hydroxy-1-[4-(5-hydroxy-1H-indol-3-yl)-piperidin-1-yl]-ethyl}-piperidin-1-yl)-propenone] | – | 0.002 µM | 0.005 µM | inhibition at 25 µM (THP-1 cells [4]; THP-1, read-out: Inhibition of MCP-1 Induced Calcium Ion Influx, percent inhibition): 88% |
| COc1ccc2c(c1)c(CC(=O)O)c(C)n2C(=O)c1ccc(Cl)cc1 [Indomethacin, indomethacin, reference compound] | – | – | – | inhibited contralateral paw swelling (Lewis rats [1]; [7]): 72%; inhibited swelling in the adjuvant-injected paws (Lewis rats [1]; [7]): 38%; inhibited adjuvant-injected paw swelling (Lewis rats [3]; [8]): 40%; inhibited contralateral paw swelling (Lewis rats [3]; [8]): 69% |
